Test results reported in US8178522B2, “Thiazoles” (Hoffmann-La Roche Inc., priority 2009, dated 2012).

target: T1, GABA A α5 (α5β3γ2) (Homo sapiens, UniProt P18507+P31644); assay: [3H]flumazenil competition binding, human GABA A α5 receptor; conditions: human receptor α5β3γ2 transiently transfected in HEK293 cells; competition for [3H]flumazenil 0.5 nM; 1 hour at 4° C.; means of two determinations; read-out: hKi GABA A α5
T1 construct: expressed in transfected cells; host or cells: HEK293, transiently transfected; membrane preparation
Method in brief: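 Competition with [3H]flumazenil at membranes from HEK293 cells transiently expressing human α5β3γ2, in Krebs-tris buffer pH 7.5. Equilibrium 1 hour at 4° C, filtration with ice-cold 50 mM Tris wash, scintillation counting. Ki values are means of two determinations.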

| Ki | Compound |
| --- | --- |
| 21.5 nM | CCCCc1noc(C)c1COc1ncc(C(=O)NCCO)s1 [Example 134, 2-(3-Butyl-5-methyl-isoxazol-4-ylmethoxy)-thiazole-5-carboxylic acid (2-hydroxy-ethyl)-amide] |
| 9 nM | Cc1onc(-c2ccccc2)c1CNc1ncc(C(=O)NC(C)C)s1 [Example 135, 2-[(5-Methyl-3-phenyl-isoxazol-4-ylmethyl)-amino]-thiazole-5-carboxylic acid isoprop-ylamide] |
| 27.5 nM | Cc1onc(-c2ccccc2)c1CNc1ncc(C(=O)NC2CCOCC2)s1 [Example 136, 2-[(5-Methyl-3-phenyl-isoxazol-4-ylmethyl)-amino]-thiazole-5-carboxylic acid (tetra-hydro-pyran-4-yl)-amide] |
